Where two headings read alike, the source gives them in different places.

Holding throughout (type): cell-based
Assay [1] has as its system LNCaP95 cells. As to the kind of experiment: Antiproliferative activity, resazurin assay, LNCaP95 cells. Conditions: enzalutamide-resistant LNCaP95 cells, 72 h, cell proliferation, read-out: IC50 (μM) LCaP95. Here is the method:
(§1) LNCaP95 and 22RV1 are prostate cancer cell lines that express high level of AR-V7 and other AR-Vs, and are enzalutamide-resistant. LNCaP95 cells were maintained in RPMI1640 medium with charcoal-stripped serum (CSS). 22Rv1 cells were maintained in RPMI1640 medium with 10% FBS. Cells were seeded in 96-well plates (5×10^3 cells/well) containing 50 μL growth medium for 24 hrs. After medium removal, 100 μL fresh medium containing individual compound at different concentrations was added to each well and incubated at 37° C. for 72 h. Then 20 μL of resazurin was added for 2 h before recording fluorescence at 560 nm (excitation) and 590 nm (emission) using a Victor microtiter plate fluorometer (Perkin-Elmer, USA). The IC50 was defined as the compound concentration required for inhibiting cell proliferation by 50%, in comparison with cells treated with the maximum amount of DMSO (0.25%) and considered as 100% viability.
For orientation: Alamar Blue is a resazurin reagent that responds to reducing activity.

The test system of assay [2] is 22RV1 cells. Kind of assay: Antiproliferative activity, resazurin assay, 22RV1 cells. Conditions: for Inhibitory rate at 10^−6 M in 22RV1 cells: 72 h incubation; for IC50: enzalutamide-resistant 22RV1 cells, 72 h, cell proliferation. Here is the method: as §1
Assay [3] relates to AR. As to the kind of experiment: Downregulation of AR in 22RV1 cells. Conditions: 22RV1, enzalutamide-resistant prostate cancer cell line (FIG. 11).
The subject of assay [4] is AR. As to the kind of experiment: Downregulation of AR in LNCaP95 cells. Conditions: LNCaP95, enzalutamide-resistant prostate cancer cell line (FIG. 10).
For assay [5], the system named is AR-V7. Kind of assay: Downregulation of AR-V7 in LNCaP95 cells. Conditions: LNCaP95, enzalutamide-resistant prostate cancer cell line (FIG. 10).
Assay [6] concerns AR-V7. Kind of assay: Downregulation of AR-V7 in 22RV1 cells. Conditions: 22RV1, enzalutamide-resistant prostate cancer cell line (FIG. 11).

In general, IC50 refers to the midpoint of a concentration-inhibition curve. For the compound Niclosamide [reference compound], in assay [1], the IC50 came to 0.372 µM. In assay [2], the “Inhibitory rate at 10^−6 M in 22RV1 cells” value (“Inhibitory rate at 10^−6 M” for short) was 51.3% and the IC50 stood at 0.284 µM. Also, the “downregulation of AR” value in assay [3] is “dose-dependent downregulation”.

For `O=C(Nc1ccc(C(F)(F)F)c(C(F)(F)F)c1)c1cc(F)ccc1O` [ARi 4], the “downregulation of AR” value in assay [4] and in assay [3] was “dose-dependent downregulation” each time. For the same compound, the “downregulation of AR-V7” value in assay [5] and in assay [6] was “dose-dependent downregulation” throughout.

With `N#Cc1ccc(NC(=O)c2cc(F)ccc2O)c(F)c1`, the IC50 in assay [1] (LNCaP-95) is 0.397 µM; in assay [2] (Homo sapiens), 0.414 µM. The “Inhibitory rate at 10^−6 M” value in assay [2] worked out at 55.3%.

With `O=C(Nc1ccc([N+](=O)[O-])cc1F)c1cc(F)ccc1O`, the figures for the IC50 in assay [1] (LNCaP-95) and in assay [2] (Homo sapiens) were 0.206 µM and 0.244 µM, respectively. Besides, in assay [2], the “Inhibitory rate at 10^−6 M” value was 43.9%.

Turning to `O=C(Nc1ccc(C(F)(F)F)cc1F)c1cc(F)c(F)cc1O`, the IC50 in assay [1] (LNCaP-95) was found to be 0.199 µM; in assay [2] (Homo sapiens) it was 0.382 µM. The “Inhibitory rate at 10^−6 M” value in assay [2] stood at 52.7%.

In the case of `O=C(Nc1ccc(C(F)(F)F)c(C(F)(F)F)c1)c1cc(F)ccc1O` [drawing 30], in assay [1] (LNCaP-95), the IC50 worked out at 0.13 µM. The “Inhibitory rate at 10^−6 M” value in assay [2] is reported as 15.7%.

In the case of `O=C(Nc1ccc(C(F)(F)F)cc1Cl)c1cc(F)ccc1O`, the IC50 in assay [1] (LNCaP-95) was 0.148 µM; in assay [2] (Homo sapiens) it was 0.135 µM. In addition, the “Inhibitory rate at 10^−6 M” value in assay [2] was 14.5%.

As to `O=C(Nc1ccc(C(F)(F)F)cc1F)c1cc(F)ccc1O`, the figures for the IC50 in assay [1] (LNCaP-95) and in assay [2] (Homo sapiens) were 0.152 µM and 0.121 µM, respectively. Further, the “Inhibitory rate at 10^−6 M” value in assay [2] is given as 12.4%.

`N#Cc1cc(NC(=O)c2cc(F)ccc2O)ccc1C(F)(F)F`: the IC50 came out at 0.161 µM in assay [1] (LNCaP-95) and 0.195 µM in assay [2] (Homo sapiens). Further, the “Inhibitory rate at 10^−6 M” value in assay [2] is recorded as 21.8%.
